Experimental data as given in publication PMC11551755, “Structure-based discovery of first inhibitors targeting the helicase activity of human PIF1” (Nucleic Acids Research, 2024).
“And” between values parts separate entries of the source, which are not always exact repeats. Equal values may be shown once. Read-outs that look alike come from different tables or passages of the source.

Tests used:
[1] = target: T1, FLhPIF1 (full length human PIF1) (Homo sapiens, UniProt Q9H611); test: radiometric strand displacement helicase assay, no pre-incubation; type: biochemical; conditions: for inhibition at 1000 µM: 1 mM single point, gel-based DNA unwinding assay, four repeats (S4 n=3); for IC50: n = 3
T1 construct: Full length human PIF1 (FLhPIF1) was expressed and purified as a His-SUMO fusion; His-SUMO (cleaved yes); made in house; 'following similar protocols' to hPIF1HD (ArcticExpress BL21(DE3) E. coli)
T1 sequence (Q9H611 1-641): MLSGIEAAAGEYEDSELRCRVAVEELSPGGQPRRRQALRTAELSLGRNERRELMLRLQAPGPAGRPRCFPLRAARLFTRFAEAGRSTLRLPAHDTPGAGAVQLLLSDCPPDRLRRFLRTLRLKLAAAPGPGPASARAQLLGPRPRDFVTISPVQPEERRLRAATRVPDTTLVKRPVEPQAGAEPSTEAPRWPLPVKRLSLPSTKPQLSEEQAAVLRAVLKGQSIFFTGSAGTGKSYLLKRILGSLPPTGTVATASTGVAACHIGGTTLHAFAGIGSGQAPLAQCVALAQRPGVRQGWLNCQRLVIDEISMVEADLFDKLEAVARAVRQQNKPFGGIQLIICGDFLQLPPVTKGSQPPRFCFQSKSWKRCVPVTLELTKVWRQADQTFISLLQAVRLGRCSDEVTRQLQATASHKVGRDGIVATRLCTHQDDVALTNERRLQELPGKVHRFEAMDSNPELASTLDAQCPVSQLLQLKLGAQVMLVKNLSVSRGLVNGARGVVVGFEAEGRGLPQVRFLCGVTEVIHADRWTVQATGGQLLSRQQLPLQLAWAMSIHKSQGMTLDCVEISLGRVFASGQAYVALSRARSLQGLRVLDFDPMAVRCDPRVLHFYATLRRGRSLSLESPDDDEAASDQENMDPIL
Protocol: Helicase activity was assayed using a radiometric strand displacement assay employing a partially single- and double-stranded substrate generated by annealing two oligonucleotides: 5′-(T)55-[…] and 5′-[…], as described previously ([19],[28]). […] SMIs (100 mM stocks in DMSO) were assayed at up to 2 mM without pre-incubation with FLhPIF1, unless otherwise stated. […] Dried gels were exposed to phosphorimaging plates (Fujifilm) for imaging and quantification (Fuji FLA3000, image gauge V3.3 software). IC50 values were analysed by non-linear regression (variable slope) using GraphPad Prism.

FLhPIF1 = target: T2, FLhPIF1 (Homo sapiens, UniProt Q9H611); test: helicase assay after pre-incubation of SMI with FLhPIF1; type: biochemical
T2 construct: Full length human PIF1 (FLhPIF1) was expressed and purified as a His-SUMO fusion; His-SUMO (cleaved yes); made in house; 'following similar protocols' to hPIF1HD (ArcticExpress BL21(DE3) E. coli)
T2 sequence (Q9H611 1-641): T1 sequence (Q9H611 1-641)
Protocol: Helicase activity was assayed using a radiometric strand displacement assay employing a partially single- and double-stranded substrate generated by annealing two oligonucleotides: 5′-(T)55-[…] and 5′-[…], as described previously ([19],[28]). The reaction buffer was 20 mM HEPES–NaOH pH 7.5, 20 mM NaCl, 5.5 mM MgCl2, 5 mM ATP, 1 mM DTT and 0.1 mg/ml BSA. SMIs (100 mM stocks in DMSO) were assayed at up to 2 mM without pre-incubation with FLhPIF1, unless otherwise stated. Reactions (0.1 nM substrate) were incubated at 37°C for 20 min, followed by addition of 0.2 volumes of 120 mM EDTA, 0.6% (w/v) SDS, 60% (v/v) glycerol and 0.1% (w/v) bromophenol blue before resolution of products by polyacrylamide gel electrophoresis (8%, 19:1 acrylamide:bis-acrylamide), 1× TBE (90 mM Tris–borate/2 mM EDTA, pH 8.3 with 0.05% (w/v) SDS buffer). Dried gels were exposed to phosphorimaging plates (Fujifilm) for imaging and quantification (Fuji FLA3000, image gauge V3.3 software). IC50 values were analysed by non-linear regression (variable slope) using GraphPad Prism.
First, we screened inhibitory activity of the SMIs listed in Table 1, following incubation of 100 nM FLhPIF1 with 100 μM SMI for 1 h at 22°C in the absence of substrates (ATP and DNA), before a 1:10 dilution into helicase reactions. […] Next, compounds 2, 5, 6 and 11, along with 4 and 1D were selected for analysis in a pre-incubation time-course (100 nM FLhPIF1, 100 μM SMI), up to 3 h before assaying helicase activity.
In parallel, IC50 values for inhibition of human UPF1 (hUPF1) helicase activity by the SMIs were also determined under the same conditions. UPF1-like SF1B helicases are the most closely related family of helicases to PIF1, with significant structural and mechanistic similarity ([52]).
Figure 6. SMI IC50 for dsDNA unwinding determined following pre-incubation. SMIs (0.0078–2 mM SMI) were incubated for 2 h at 22°C (100 nM FLhPIF1 or hUPF1) before dilution (1:10) in the standard helicase assay (0.1 nM DNA substrate). For 1D and 6, structures, electrophoresis of FLhPIF1 reaction product and graphs for IC50 value determination are shown. The graphed data include the activity of SMIs towards hUPF1 and IC50 values obtained are given. See Supplementary Figure S14 for the complete data set. TEXT PRINTED IN THE PICTURE: 1D: IC50 (μM): PIF1: 978 ± 221; IC50 (μM): UPF1: N.D. | 6: IC50 (μM): PIF1: 79.4 ± 16; IC50 (μM): UPF1: 1750 ± 426

[2] = 0.0078–2 mM compound, 10 nM FLhPIF1, 0.1 nM DNA substrate, no pre-incubation, read-out: IC50 for inhibition of FLhPIF1 helicase activity

Row | inhibition at 1000 µM [1] [%] | SMILES | further results
1 | 85.6 ± 5.1 | Nc1nc(-c2ccc([N+](=O)[O-])cc2)cs1 [Compound 3] | IC50 [1, 2]: 184 ± 13 µM
2 | -6.4 ± 2 | CNc1nc(-c2ccc(NC(C)=O)cc2)cs1 [S3] | –
3 | 9.6 ± 2.8 | COc1nc(-c2ccc(NC(C)=O)cc2)cs1 [S4] | inhibition of FLhPIF1 helicase activity in 1 mM single-point screen [1]: only minimal activity
4 | 59.5 ± 1.7 | Nc1nc(-c2cccc(OC(F)(F)F)c2)cs1 [S10] | –
5 | -4.6 ± 2.8 | CCN(CC)C(=O)c1ccc(-c2csc(N)n2)cc1 [S14] | –
6 | 37.9 ± 4.3 | CNC(=O)c1ccc(-c2csc(N)n2)cc1 [S15] | –
7 | 25.9 ± 3.2 | CCOc1ccc(-c2csc(N)n2)cc1 [S16] | –
8 | -6.7 ± 7.3 | Nc1nc(-c2ccc(-c3ccccc3)cc2)cs1 [S18] | inhibition of FLhPIF1 helicase activity in 1 mM single-point screen [1]: incapable of inhibiting FLhPIF1 helicase activity effectively
9 | 35.9 ± 9.9 | COC(=O)Cc1ccc(-c2csc(N)n2)cc1 [S20] | –
10 | -17.3 ± 4.2 | Nc1nc(-c2ccc(S(N)(=O)=O)cc2)cs1 [S21] | –
11 | 11.5 ± 3.7 | CC(=O)Nc1ccc(-c2csc(N)n2)cc1N1CCOCC1 [S48] | –
12 | 50 ± 4.2 | CC(=O)Nc1ccc(-c2csc(N)n2)cc1OC1CCCC1 [S51] | –
13 | -17.3 ± 5 | CC(=O)Nc1ccc(-c2csc(N)n2)cc1-c1cccnc1 [S55] | inhibition of FLhPIF1 helicase activity in 1 mM single-point screen [1]: did not display any inhibitory activity at all

More lines, now with the values behind:

Row | SMILES | inhibition at 1000 µM [1] [%] | further results
14 | CC(=O)Nc1ccc(-c2csc(N)n2)cc1 [Compound 1E] | – | helicase inhibitory activity compared to commercial batches 1A–1C ([1]; 0.0078-2 mM, no pre-incubation): significantly lower inhibitory activities
15 | CC(=O)Nc1ccc(-c2csc(N)n2)cc1 [Compound 1F] | 14.2 ± 7 | IC50 [1, 2]: ~1160 µM and 1160 µM; IC50 ([1]; no pre-incubation, value with large error, read-out: IC50 against FLhPIF1 helicase): ~1200 µM
16 | COC(=O)c1ccc(-c2csc(N)n2)cc1 [Compound 4] | 72.4 ± 4.5 | IC50 (FLhPIF1; 2 h pre-incubation at 22°C with 100 nM FLhPIF1, then 1:10 dilution into helicase assay, read-out: IC50 for dsDNA unwinding by FLhPIF1 following pre-incubation): 300 ± 66 µM; increase in inhibition of FLhPIF1 DNA unwinding after pre-incubation (FLhPIF1; 3 h pre-incubation, 100 nM FLhPIF1, 100 μM SMI): 5–10%; IC50 [1, 2]: 78 ± 4 µM
17 | CC(=O)Nc1ccc(-c2csc(NC(C)=O)n2)cc1 [Compound 7] | 57 ± 14.7 | fold increase in inhibition at 1 mM relative to compound 1 ([1]; 1 mM single point helicase screen): 4 fold; IC50 [1, 2]: 569 ± 139 µM
18 | CNCCNc1cc(-c2csc(N)n2)ccc1[N+](=O)[O-] [Compound 8] | 77.8 ± 7.9 | IC50 [1, 2]: 176 ± 6 µM
19 | CC(=O)Nc1ccc(-c2csc(N)n2)cc1N1CCNCC1 [Compound 9] | 69.1 ± 5.5 | IC50 [1, 2]: 307 ± 16 µM
20 | CC(=O)Nc1ccc(-c2csc(C)n2)cc1 [S2] | -3 ± 2.8 | inhibition of FLhPIF1 helicase activity in 1 mM single-point screen [1]: only minimal activity
21 | Cc1cccc(-c2csc(N)n2)c1 [S7] | -8.1 ± 1.9 | –
22 | Cc1ccc(-c2csc(N)n2)cc1 [S8] | 43.9 ± 5.7 | inhibition of FLhPIF1 helicase activity in 1 mM single-point screen [1]: incapable of inhibiting FLhPIF1 helicase activity effectively
23 | N#Cc1cccc(-c2csc(N)n2)c1 [S9] | -12.6 ± 4.6 | –
24 | Nc1nc(-c2ccc(OC(F)(F)F)cc2)cs1 [S11] | 58.3 ± 9.1 | –
25 | COC(=O)c1cccc(-c2csc(N)n2)c1 [S12] | -11 ± 1 | –
26 | CCCNC(=O)c1cccc(-c2csc(N)n2)c1 [S13] | 0.2 ± 1.4 | –
27 | Nc1nc(-c2ccc(Oc3ccccc3)cc2)cs1 [S17] | 61.7 ± 8.2 | –
28 | CS(=O)(=O)c1ccc(-c2csc(N)n2)cc1 [S19] | 46.6 ± 15.5 | –
29 | CC(=O)Nc1ccc(-c2csc(N)n2)cc1C(C)=O [S24] | 10.4 ± 3.3 | –
30 | CC(=O)Nc1ccc(-c2csc(N)n2)cc1C(C)O (centres unmarked) [S25] | 42.5 ± 13.5 | –
31 | CCN(CC)c1cc(-c2csc(N)n2)ccc1NC(C)=O [S47] | 24.6 ± 8.9 | –
32 | CC(=O)Nc1ccc(-c2csc(N)n2)cc1N1CCN(C)CC1 [S49] | 24.3 ± 5.9 | –
33 | COc1cc(-c2csc(N)n2)ccc1NC(C)=O [S50] | 22.1 ± 5 | –
34 | CC(=O)Nc1ccc(-c2csc(N)n2)cc1-c1cnn(C)c1 [S56] | -16.9 ± 4.5 | inhibition of FLhPIF1 helicase activity in 1 mM single-point screen [1]: did not display any inhibitory activity at all
